Patent publication US12257253B2, “Triamterene or nolatrexed for use in the treatment of phenylketonuria” (SOM INNOVATION BIOTECH, S.A., priority 2019, dated 2025)
Where a name gives a salt, the structure may show the parent alone. Read-outs that look alike come from different tables or passages of the source.

Legend:
[1] = molecular target: T1, wild-type PAH (Homo sapiens (Human), UniProt P00439); assay: Phenylalanine hydroxylase residual protein amount (dot blot, COS-7 lysates); type: cell-based; details: COS-7 cells, compound 10 μM (sepiapterin 5 μM), read-out: PAH protein level (immune blot signal) WT PAH Mean
Experimental: (§1) 3. Phenylalanine Hydroxylase Residual Protein Amount
(§2) The analysis of the residual PAH protein amount was based on the method described in Gersting S. W. et al., Human Molecular Genetics, 2010, 19(10), 2039-2049 with modifications.
(§3) Detection of the residual PAH protein amount was performed as a dot blot using the lysates obtained from the cell culture where transiently transfected COS-7 cells (with wild-type PAH or PAH variant) were exposed for 48 h to compounds. The experiment was carried out from the same samples as used for measuring enzyme activities.
(§4) 2 μl of the lysate were dropped onto the nitrocellulose membrane. The membrane was allowed to air dry at room temperature for 30 min followed by 40 min blocking in 5% milk in TBS-Tween (room temperature). The membrane was incubated with the mouse monoclonal primary antibody specific for PAH (Millipore, Cat. No. MAB5278, 1:1000 dilution in 5% milk in TBS-Tween) for overnight at 4° C. Next, the membrane was washed (3×10 min in TBS-Tween) and incubated with the secondary HRP-conjugated antibody (anti-mouse antibody; Santa Cruz Biotechnology, Inc., Cat. No. sc-2005; 1:1000 dilution in 5% milk in TBS-Tween) followed by thorough washing in TBS-Tween (3×10 min) and distilled water (1×10 min). Blots were visualized with Pierce™ ECL substrate (ThermoFisher Scientific, Cat No. 32106) and chemiluminescence was monitored with a DIANA III Imaging system or ChemiDoc™ MP Imaging System (BioRad). To analyze the compound effect on the PAH protein amount densitometry analysis was performed using ImageJ Software.
(§5) The effect of compound on PAH protein amount was calculated from triplicates. As for determination of the enzyme activity the background of the not transfected cells (NT) was subtracted from the transfected cells (NCC or compound treated). In the next step delta of the NCC versus compound treated cells was calculated. Residual protein amount greater than 100% represents an increase in the stability of the enzyme with respect to NCC.

[2] = molecular target: T2, Arg261Gln (R261Q) PAH (Homo sapiens (Human), UniProt P00439, R261Q); assay: as above; type: cell-based; details: COS-7 cells, compound 10 μM (sepiapterin 5 μM), read-out: PAH protein level (immune blot signal) R261Q PAH Mean
Experimental: as §1, §2, §3, §4, §5

[3] = molecular target: T1, wild-type PAH; assay: Isothermal titration calorimetry; type: binding; details: ITC; for Kd / N (stoichiometry) / ΔG / ΔH / −TΔS: 25° C., WT PAH
Excerpt: 4. Isothermal Titration Calorimetry
Isothermal titration calorimetry (ITC) is a quantitative physical technique used to determine binding affinities of small molecules to proteins or other larger molecules [Freyer M. W. and Lewis E. A., Methods in Cell Biology, 2008, vol. 4, Chapter 4, pages 79-113]. The measurement detects changes of heat generated or absorbed when molecules interact, generate binding kinetics and thermodynamic profile of the molecular interaction. The following parameters are determined: KD (equilibrium dissociation constant), N (stoichiometry of the interaction (mol ligand/mol complex)), ΔH (enthalpy change), ΔG (Gibbs energy), T (temperature) and ΔS (entropy change).
ITC experiments were performed at 25° C. using a MicroCal PEAQ-ITC microcalorimeter (Malvern). PAH proteins were prepared in a HEPES buffer (HEPES 20 mM Hepes, 0.2M NaCl, 1 mM DTT, pH 7.0) containing 5% DMSO, in order to match the final DMSO concentration of the compounds dilutions. The protein concentration used (30 μM) was determined using ultraviolet (UV) absorbance at 280 nm. The compounds ([…]) were prepared using the exact same buffer. Twelve injections of 3 μL of compound/ligand were titrated into the sample cell (containing the protein) over 31 min with a stirring speed of 750 rpm. Data was baseline adjusted by subtracting the background obtained from equivalent injections of compound into the buffer solution. The titration curves were analyzed using MicroCal PEAQ-ITC analytics software (version 1.1.0.1262, Malvern Instruments Ltd.) using a model that assumes a set of identical binding sites where the total heat of the solution is calculated as:
[formula] where n is the number of binding sites, Mt is the total protein concentration in the cell, ΔH is the molar heat of ligand binding, Xt is the total concentration of ligand, and K the binding constant (K=1/KD). The heat released per injection (i), ΔQ(i), is calculated following the equation below, which compensates for the volume that is added in each injection (ΔVi). V0 is the initial volume in the cell.
The parameters, n, K, and ΔH are determined using non-linear square fitting using the Levenberg-Marquardt algorithm.

[4] = molecular target: T1, wild-type PAH; assay: Thermal stability shift assay (DSF); type: binding; details: compound 30 μM (BH4 43 μM); for ΔTm1 WT PAH: shift of transition midpoint 1 vs NCC; for ΔTm2 WT PAH: shift of transition midpoint 2 vs NCC
Excerpt: (§6) 1. Thermal Stability Shift Assay
(§7) Thórólfsson et al. (Biochemistry, 2002, 41(24), 7573-7585) describe that the thermal denaturation of hPAH occurs in three stages: (i) unfolding of the four regulatory domains, which is responsible for the low-temperature calorimetric transition (ii) unfolding of two (out of the four) catalytic domains, which is responsible for the high-temperature transition; and (iii) irreversible protein denaturation. The most important domain for stabilization is the regulatory domain.
(§8) Thus, to test the compound effect on thermal stability of the target protein a thermal stability shift assay (also called differential scanning fluorimetry (DSF)) was performed [Niesen F. H. et al., Nat Protoc., 2007, 2(9), 2212-2221; Gersting S. W. et al., Human Molecular Genetics, 2010, 19(10), 2039-2049; and Gersting S. W. et al., J. Biol Chem. 2010, 285(40), 30686-30697]. DSF monitors thermal unfolding of proteins in the presence of a fluorescent dye (SYPRO Orange; λexc=465 nm, λem=610 nm) and was performed using a real-time PCR instrument (Applied BioSystems 7000HT Fast Real-Time PCR System). Compounds that increase the midpoints of thermal denaturation (Tm) are considered to bind and stabilize the protein.
(§9) In brief, purified wild-type or Arg261Gln (which is the most frequent mutation responsive to BH4) PAH proteins (diluted in 20 mM NaHEPES, pH 7.0 and 200 mM NaCl, 2 mM DTT to 2 mg/ml) were used at a final concentration of 0.2 mg/ml protein per sample. The compounds were tested at a final concentration of 30 μM. A no compound control (NCC) was used according to the compound solvent at a final concentration of 2% (H2O, DMSO, ethanol, methanol). As a positive control we used the natural cofactor 6R-L-erythro-5,6,7,8-tetrahydrobiopterin (BH4, CAS 69056-38-8) stabilized in 100 mM dithiothreitol (DTT), in a final concentration of 43 μM. To exclude unspecific effects of the compound to the dye, a no protein control (NPC) was added (buffer, compound, dye). The measurement was performed in duplicates and samples were denatured by scanning a temperature range of 20 to 75° C. at a scan rate of 0.5° C./min.
(§10) The data was normalized and the respective Tm values were calculated by bi-phasic equation to determine temperatures at which half denaturation occurred (Software GraphPadPrism). To identify compound specific effects on the thermal stability of the target protein, the reference Tm (NCC) was used to calculate the temperature shift between compound treated and not treated protein (Tm−TmNCC), from duplicates, to provide transition midpoints shifts (ΔTm1 and ΔTm2). Tm1 and Tm2 are the two different transition mid point of the unfolding process of the protein as the tetrameric protein PAH unfolds in two steps due to its domains. A shift in Tm1 of 2° C. reflects a relevant increase in thermal stability on the regulatory domain and, thus, is considered a positive result.

[5] = molecular target: T2, Arg261Gln (R261Q) PAH; assay: Thermal stability shift assay (DSF); type: binding; details: compound 30 μM (BH4 43 μM); for ΔTm1 R261Q PAH: shift of transition midpoint 1 vs NCC; for ΔTm2 R261Q PAH: shift of transition midpoint 2 vs NCC
Excerpt: as §6, §7, §8, §9, §10

T1 sequence (P00439 whole entry): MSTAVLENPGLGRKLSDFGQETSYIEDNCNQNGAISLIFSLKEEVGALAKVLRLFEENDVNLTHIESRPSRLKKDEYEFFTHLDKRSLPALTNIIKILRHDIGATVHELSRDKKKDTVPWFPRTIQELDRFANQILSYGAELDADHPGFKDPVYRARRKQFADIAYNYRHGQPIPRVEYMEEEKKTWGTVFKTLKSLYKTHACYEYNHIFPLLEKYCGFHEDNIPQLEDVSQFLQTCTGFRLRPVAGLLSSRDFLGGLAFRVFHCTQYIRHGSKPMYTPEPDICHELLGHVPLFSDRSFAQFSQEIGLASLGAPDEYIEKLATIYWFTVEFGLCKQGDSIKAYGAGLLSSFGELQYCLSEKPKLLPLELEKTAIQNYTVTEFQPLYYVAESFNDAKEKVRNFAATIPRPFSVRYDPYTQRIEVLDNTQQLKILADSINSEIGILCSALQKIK
T2 sequence (P00439 whole entry R261Q): as the sequence (P00439 whole entry) above, with R261Q counted along it

Row | SMILES | PAH protein level (% of control) at 10 µM ([1]; 48 h) | PAH protein level (% of control) at 10 µM ([2]; 48 h) | ΔTm1 WT PAH [4] | ΔTm2 WT PAH [4] | ΔTm1 R261Q PAH [5] | ΔTm2 R261Q PAH [5] | further results
1 | CC(C)[C@H](N)C(=O)OCCOCn1cnc2c(=O)[nH]c(N)nc21 [Valacyclovir HCl, 2-[(2-amino-6-oxo-3H-purin-9-yl)methoxy]ethyl (2S)-2-amino-3-methylbutanoate] | 146% | 104% | – | – | – | – | –
2 | C[C@H](O)[C@H](O)[C@H]1CNc2[nH]c(N)nc(=O)c2N1 [BH4, 6R-L-erythro-5,6,7,8-tetrahydrobiopterin] | – | – | 0.20 °C | 1.88 °C | 2.54 °C | 12.17 °C | Kd [3]: 40.7 ± 14.1 µM; N (stoichiometry) [3]: 0.936 ± 0.3 sites; ΔG [3]: -6 kcal/mol; ΔH [3]: -17.9 ± 7.91 kcal/mol; −TΔS [3]: 11.9 kcal/mol
3 | CC(C)[C@H](N)C(=O)OCC(CO)OCn1cnc2c(=O)[nH]c(N)nc21 (stereo partly drawn) [Valganciclovir HCl, [2-[(2-amino-6-oxo-3H-purin-9-yl)methoxy]-3-hydroxypropyl] (2S)-2-amino-3-methylbutanoate] | – | – | – | – | – | – | PAH protein level (% of control) at 10 µM ([1]; COS-7, 48 h): 138%; PAH protein level (% of control) at 10 µM ([2]; COS-7, 48 h): 141%
4 | C=CCn1c(=O)n([C@@H]2O[C@H](CO)C(O)C2O)c2nc(N)[nH]c(=O)c21 (stereo in doubt) [Loxoribine, 2-amino-9-[(2R,3R,4S,5R)-3,4-dihydroxy-5-(hydroxymethyl)oxolan-2-yl]-7-prop-2-enyl-3H-purine-6,8-dione] | – | – | 3.57 °C | – | – | – | –
5 | Nc1cc(N2CCCCC2)nc(N)[n+]1[O-] [Minoxidil, 2,6-diamino-4-(piperidin-1-yl)pyrimidine 1-oxide] | 127% | 96.1% | – | – | – | – | –
6 | CCc1cccc2cc(C(O)CNC(C)(C)C)oc12 (centres unmarked) [S-Bufuralol HCl, 2-(tert-butylamino)-1-(7-ethyl-1-benzofuran-2-yl)ethan-1-ol] | – | – | 1.05 °C | 0.24 °C | 3.73 °C | 0.92 °C | –
7 | CN1CCc2cc3c(cc2C1O)OCO3 (centres unmarked) [Hydrastinine HCl, 6-methyl-7,8-dihydro-5H-[1,3]dioxolo[4,5-g]isoquinolin-5-ol] | 164% | 141% | −0.49 °C | 6.10 °C | 2.46 °C | 0.04 °C | Kd [3]: 2.99 ± 3.2 µM; N (stoichiometry) [3]: 1.310 ± 0.2 sites; ΔG [3]: -7.55 kcal/mol; ΔH [3]: 2.29 ± 0.55 kcal/mol; −TΔS [3]: -9.82 kcal/mol; Kd (in words) ([3]; recombinant PAH): low micromolar range
8 | CCC[S+]([O-])c1ccc2[nH]c(NC(=O)OC)nc2c1 (centres unmarked) [Ricobendazole, methyl [5-(propane-1-sulfinyl)-1H-benzoimidazol-2-yl]-carbamate] | 154% | 104% | −0.48 °C | 2.57 °C | 2.19 °C | 3.39 °C | –
9 | CCc1cccc2cc(C(O)CNC(C)(C)C)oc12 (centres unmarked) [Bufuralol HCl, 2-(tert-butylamino)-1-(7-ethyl-1-benzofuran-2-yl)ethan-1-ol] | – | – | 1.62 °C | −0.09 °C | 2.24 °C | – | –
